For assay [1], the target named is T1, Cbl-b (Homo sapiens, UniProt Q13191).
T1 construct: Cbl-b-HiBit KI Jurkat Cells were purchased from Promega; host or cells: Cbl-b-HiBiT knock-in Jurkat cells
The assay can be described thus: Cbl-b Degradation Method A (FACS, anti-Cbl-b antibody staining). The format is cell-based. To be noted: Cbl-b-HiBit KI Jurkat Cells, incubated at least 20 hours; for DC50: half maximal degradation, read-out: Cbl-b Degredation Method A IC50; for Dmax: Jurkat, maximum degradation observed, read-out: Cbl-b Degredation Method A Dmax (%). In short, it runs like this: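 Cbl-b-HiBit KI Jurkat cells treated with compound for at least 20 h at 37 °C, then fixed, permeabilized and stained with anti-Cbl-b antibody plus anti-rabbit AF488 secondary. Cbl-b levels read by FACS; DC50 and Dmax (percent of control) derived.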

Assay [2] has as its target T1, Cbl-b. Kind of assay: Cbl-b Degradation Method B (Nano-Glo HiBiT lytic detection). The format is cell-based. The conditions noted are these: Cbl-b-HiBit KI Jurkat Cells, incubated at least 6-24 hours; for DC50: half maximal degradation, read-out: Cbl-b Degredation Method B IC50; for Cbl-b Degredation Method B Dmax (%): maximum degradation observed. In short, it runs like this: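 Cbl-b-HiBiT knock-in Jurkat cells (20,000/well) were treated after ~24 h plating with an 11-point 1:3 series for 6-24 h at 37° C. Remaining Cbl-b measured by Nano-Glo HiBiT lytic luminescence. DC50 and Dmax expressed as % of control.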
On the technique in general: With HiBiT, luminescence reflects the tagged protein that the partner subunit can reach.

Molecules are shown by their SMILES.

T1 sequence (Q13191 whole entry): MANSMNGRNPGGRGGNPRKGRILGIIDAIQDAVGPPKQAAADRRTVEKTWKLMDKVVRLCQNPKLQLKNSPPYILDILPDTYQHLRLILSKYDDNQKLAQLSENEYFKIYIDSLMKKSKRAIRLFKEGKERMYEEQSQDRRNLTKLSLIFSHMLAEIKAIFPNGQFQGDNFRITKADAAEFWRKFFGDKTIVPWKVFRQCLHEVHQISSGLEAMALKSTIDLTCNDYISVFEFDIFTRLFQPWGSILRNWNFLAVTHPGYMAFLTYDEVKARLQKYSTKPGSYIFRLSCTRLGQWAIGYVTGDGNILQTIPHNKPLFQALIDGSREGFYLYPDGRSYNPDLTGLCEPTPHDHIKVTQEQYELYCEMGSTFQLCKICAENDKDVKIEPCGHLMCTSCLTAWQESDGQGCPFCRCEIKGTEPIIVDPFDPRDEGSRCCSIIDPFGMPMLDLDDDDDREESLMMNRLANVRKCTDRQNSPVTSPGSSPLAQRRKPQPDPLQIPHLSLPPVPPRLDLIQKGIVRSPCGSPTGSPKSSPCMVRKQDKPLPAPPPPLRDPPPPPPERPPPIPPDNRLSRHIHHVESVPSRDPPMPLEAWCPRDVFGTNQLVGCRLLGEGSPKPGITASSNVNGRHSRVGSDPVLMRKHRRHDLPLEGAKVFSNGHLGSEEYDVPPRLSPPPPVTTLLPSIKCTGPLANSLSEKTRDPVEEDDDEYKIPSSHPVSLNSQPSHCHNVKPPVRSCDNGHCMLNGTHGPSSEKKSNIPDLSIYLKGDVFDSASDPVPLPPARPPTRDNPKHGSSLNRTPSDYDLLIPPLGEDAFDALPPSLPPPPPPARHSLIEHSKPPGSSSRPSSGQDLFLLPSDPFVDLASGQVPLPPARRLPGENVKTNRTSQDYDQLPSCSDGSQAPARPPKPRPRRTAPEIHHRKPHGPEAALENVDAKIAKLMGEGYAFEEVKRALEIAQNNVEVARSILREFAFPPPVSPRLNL

In general, Dmax refers to the largest share of the target that was removed. With `Cc1cc(N2CCC(O[C@H]3CC[C@H](CN4CCN(Cc5cc(C(F)(F)F)c6cn(-c7cccc(C8(Cc9nncn9C)CC(C#N)C8)c7)nc6c5)C(C)(C)C4)CC3)CC2)c(F)c2c1C(=O)N(C1CCC(=O)NC1=O)C2` (stereo partly drawn) [Example 292, (1r**,3r**)-3-(3-{6-[(2,2-dimethyl-4-{[(1r*,4r*)-4-({1-[2-(2,6-dioxopiperidin-3-yl)-4-fluoro-7-methyl-1-oxo-2,3-dihydro-1H-isoindol-5-yl]piperidin-4-yl}oxy)cyclohexyl]methyl}piperazin-1-yl)methyl]-4-(trifluoromethyl)-2H-indazol-2-yl}phenyl)-3-[(4-methyl-4H-1,2,4-triazol-3-yl)methyl]cyclobutane-1-carbonitrile], the DC50 at Cbl-b [1] was in the range of 5 to 50 nM; on Cbl-b [2], 50 to 500 nM. The Dmax on Cbl-b [1] was under 35%.

Regarding `COC1CC(Cc2nncn2C)(c2cccc(N3Cc4c(cc(CN5CCN(C[C@H]6CC[C@H](OC7CCN(c8ccc9c(n8)C(C)N(C8CCC(=O)NC8=O)C9=O)CC7)CC6)CC5(C)C)cc4C(F)(F)F)C3=O)c2)C1` (stereo partly drawn) [Example 294, 3-[7-methyl-5-oxo-2-(4-{[(1r,4r)-4-[(4-{[2-(3-{3-methoxy-1-[(4-methyl-4H-1,2,4-triazol-3-yl)methyl]cyclobutyl}phenyl)-3-oxo-7-(trifluoromethyl)-2,3-dihydro-1H-isoindol-5-yl]methyl}-3,3-dimethylpiperazin-1-yl)methyl]cyclohexyl]oxy}piperidin-1-yl)-5H,6H,7H-pyrrolo[3,4-b]pyridin-6-yl]piperidine-2,6-dione], on Cbl-b [1], the DC50 fell in the range of 50 to 500 nM and the Dmax was over 70%. Besides, on Cbl-b [2], the DC50 is under 5 nM and the “Cbl-b Degredation Method B Dmax (%)” value was “C (C ≤ 35)”.

For `Cn1cnnc1C[C@]1(c2cccc(N3Cc4c(cc(CN5CCN(C[C@H]6CC[C@H](OC7CCN(c8ccc9c(n8)n(C)c(=O)n9C8CCC(=O)NC8=O)CC7)CC6)CC5(C)C)cc4C(F)(F)F)C3=O)c2)C[C@H](C#N)C1` (stereo partly drawn) [Example 300, (1r,3r)-3-(3-{6-[(2,2-dimethyl-4-{[(1r,4r)-4-({1-[1-(2,6-dioxopiperidin-3-yl)-3-methyl-2-oxo-1H,2H,3H-imidazo[4,5-b]pyridin-5-yl]piperidin-4-yl}oxy)cyclohexyl]methyl}piperazin-1-yl)methyl]-1-oxo-4-(trifluoromethyl)-2,3-dihydro-1H-isoindol-2-yl}phenyl)-3-[(4-methyl-4H-1,2,4-triazol-3-yl)methyl]cyclobutane-1-carbonitrile], at Cbl-b [1], the DC50 fell in the range of 50 to 500 nM and the Dmax was 35 to 70%. Further, at Cbl-b [2], the DC50 was under 5 nM and the “Cbl-b Degredation Method B Dmax (%)” value was “C (C ≤ 35)”.

Turning to `Cn1cnnc1C[C@]1(c2cccc(N3Cc4c(cc(CN5CCN(C[C@H]6CC[C@H](OC7CCN(c8cccc9c8n(C)c(=O)n9C8CCC(=O)NC8=O)CC7)CC6)CC5(C)C)cc4C(F)(F)F)C3=O)c2)C[C@H](C#N)C1` (stereo partly drawn) [Example 301, (1r,3r)-3-(3-{6-[(2,2-dimethyl-4-{[(1r,4r)-4-({1-[1-(2,6-dioxopiperidin-3-yl)-3-methyl-2-oxo-2,3-dihydro-1H-1,3-benzodiazol-4-yl]piperidin-4-yl}oxy)cyclohexyl]methyl}piperazin-1-yl)methyl]-1-oxo-4-(trifluoromethyl)-2,3-dihydro-1H-isoindol-2-yl}phenyl)-3-[(4-methyl-4H-1,2,4-triazol-3-yl)methyl]cyclobutane-1-carbonitrile], on Cbl-b [1], the DC50 was in the range of 50 to 500 nM and the Dmax was over 70%. In addition, at Cbl-b [2], the DC50 was under 5 nM and the “Cbl-b Degredation Method B Dmax (%)” value is recorded as “C (C ≤ 35)”.

Source of the values: patent US20260184710A1, “CASITAS B-LINEAGE LYMPHOMA PROTOONCOGENE B (CBL-B) DEGRADING COMPOUNDS AND ASSOCIATED METHODS OF USE” (Arvinas Operations, Inc., priority 2022, published 2026).
